According to patent US20110028318A1, “HERBICIDAL COMPOUNDS BASED ON N-AZINYL-N'-PYRIDYLSULPHONYLUREAS” (Bayer CropScience AG, priority 2007, published 2011):

How the values were obtained:
Alopecurus myosuroides [1] = assay: Pre-emergence herbicidal activity, ALOMY; type: in vivo; details: 80 g/ha, WP formulation, scored visually after approximately 3 weeks vs untreated controls (100% = plants have died)
Excerpt: (§1) Seeds of monocotyledonous or dicotyledonous weed plants or crop plants are placed in sandy loam in wood fiber pots and covered with soil. The compounds according to the invention, which are formulated as wettable powders (WP) are then applied to the surface of the soil cover in the form of an aqueous suspension or emulsion with a water application rate of 600 I/ha (converted), with addition of 0.2% wetter. After the treatment, the pots are placed in the greenhouse and maintained under good growth conditions for the test plants. After approximately 3 weeks, the activity of the preparation is scored visually in comparison with untreated controls (herbicidal activity in percent (%): 100% activity=plants have died, 0% activity=like control plants).

Matricaria inodora = assay: Pre-emergence herbicidal activity, MATIN; type: in vivo; details: 80 g/ha, WP formulation, scored visually after approximately 3 weeks vs untreated controls (100% = plants have died)
Excerpt: as §1

Stellaria media [2] = assay: Pre-emergence herbicidal activity, STEME; type: in vivo; details: 80 g/ha, WP formulation, scored visually after approximately 3 weeks vs untreated controls (100% = plants have died)
Excerpt: as §1

Alopecurus myosuroides [3] = assay: Post-emergence herbicidal activity, ALOMY; type: in vivo; details: dosage rate 80 g/ha, scored visually after approx. 3 weeks vs untreated controls
Procedure: (§2) Seeds of monocotyledonous or dicotyledonous weed plants or crop plants are placed in sandy loam in wood fiber pots, covered with soil and grown in the greenhouse under good growth conditions. 2 to 3 weeks after sowing, the test plants are treated in the one-leaf stage. The compounds according to the invention, which are formulated as wettable powders (WP), are then sprayed onto the green plant parts in the form of an aqueous suspension or emulsion with a water application rate of 600 I/ha (converted) with addition of 0.2% of wetter. After the test plants have been left to stand in the greenhouse for approximately 3 weeks under optimal growth conditions, the activity of the preparation is scored visually in comparison with untreated controls (herbicidal activity in percent (%): 100% activity=plants have died, 0% activity=like control plants).

Echinochloa crus-galli = assay: Post-emergence herbicidal activity, ECHCG; type: in vivo; details: dosage rate 80 g/ha, scored visually after approx. 3 weeks vs untreated controls
Procedure: as §2

Lolium multiflorum = assay: Post-emergence herbicidal activity, LOLMU; type: in vivo; details: dosage rate 80 g/ha, scored visually after approx. 3 weeks vs untreated controls
Procedure: as §2

Abutilon theophrasti = assay: Post-emergence herbicidal activity, ABUTH; type: in vivo; details: dosage rate 80 g/ha, scored visually after approx. 3 weeks vs untreated controls
Procedure: as §2

Amaranthus retroflexus = assay: Post-emergence herbicidal activity, AMARE; type: in vivo; details: dosage rate 80 g/ha, scored visually after approx. 3 weeks vs untreated controls
Procedure: as §2

Pharbitis purpurea = assay: Post-emergence herbicidal activity, PHBPU; type: in vivo, Pharbitis/Ipomoea purpurea; details: dosage rate 80 g/ha, scored visually after approx. 3 weeks vs untreated controls
Procedure: as §2

Stellaria media [4] = assay: Post-emergence herbicidal activity, STEME; type: in vivo; details: dosage rate 80 g/ha, scored visually after approx. 3 weeks vs untreated controls
Procedure: as §2

Viola tricolor = assay: Post-emergence herbicidal activity, VIOTR; type: in vivo; details: dosage rate 80 g/ha, scored visually after approx. 3 weeks vs untreated controls
Procedure: as §2

logp = type: physicochemical

In the case of `COc1cc(OC)nc(NC(=O)NS(=O)(=O)c2ncccc2C2=NOCC2)n1` [Ia-2], the “herbicidal activity in percent, ALOMY” value (Alopecurus myosuroides [1]) is reported as 90%, the “herbicidal activity in percent, MATIN” value (Matricaria inodora) is reported as 90% and the “herbicidal activity in percent, STEME” value (Stellaria media [2]) is reported as 90%. For the same compound, the “herbicidal activity ALOMY” value (Alopecurus myosuroides [3]) was 80%, the “herbicidal activity ECHCG” value (Echinochloa crus-galli) was 100% and the “herbicidal activity LOLMU” value (Lolium multiflorum) was 90%. For the same compound, the “herbicidal activity ABUTH” value (Abutilon theophrasti) was 100%, the “herbicidal activity AMARE” value (Amaranthus retroflexus) was 90% and the “herbicidal activity PHBPU” value (Pharbitis purpurea) was 90%. The “herbicidal activity STEME” value (Stellaria media [4]) was 90% and the “herbicidal activity VIOTR” value (Viola tricolor) was 90%.
For `COc1cc(SC)nc(NC(=O)NS(=O)(=O)c2ncccc2C2=NOCC2)n1` [Ia-4], the “herbicidal activity in percent, ALOMY” value (Alopecurus myosuroides [1]) was 80%, the “herbicidal activity in percent, MATIN” value (Matricaria inodora) was 90% and the “herbicidal activity in percent, STEME” value (Stellaria media [2]) was 90%. The “herbicidal activity ALOMY” value (Alopecurus myosuroides [3]) was 80%, the “herbicidal activity ECHCG” value (Echinochloa crus-galli) was 90% and the “herbicidal activity ABUTH” value (Abutilon theophrasti) was 80%. For the same compound, the “herbicidal activity AMARE” value (Amaranthus retroflexus) was 100%, the “herbicidal activity PHBPU” value (Pharbitis purpurea) was 100% and the “herbicidal activity STEME” value (Stellaria media [4]) was 90%. For the same compound, the “herbicidal activity VIOTR” value (Viola tricolor) was 80%.
With `CN(C)c1nc(NC(=O)NS(=O)(=O)c2ncccc2C2=NOCC2)nc(OCC(F)(F)F)n1` [Ia-8] the “herbicidal activity ECHCG” value (Echinochloa crus-galli) was 80%, the “herbicidal activity LOLMU” value (Lolium multiflorum) was 90% and the “herbicidal activity ABUTH” value (Abutilon theophrasti) was 80%.
In the case of `CCCC1CC(c2cccnc2S(=O)(=O)NC(=O)Nc2nc(C)cc(OC)n2)=NO1` (stereo not drawn) [Ia-17], the “herbicidal activity in percent, ALOMY” value (Alopecurus myosuroides [1]) is reported as 90%, the “herbicidal activity ALOMY” value (Alopecurus myosuroides [3]) is reported as 80% and the “herbicidal activity LOLMU” value (Lolium multiflorum) is reported as 80%. The “herbicidal activity AMARE” value (Amaranthus retroflexus) was 80%.
For `COc1cc(OC)nc(NC(=O)NS(=O)(=O)c2ncccc2C2=NOC(C(C)C)C2)n1` (stereo not drawn) [Ia-10], the “herbicidal activity in percent, ALOMY” value (Alopecurus myosuroides [1]) was 80%, the “herbicidal activity in percent, MATIN” value (Matricaria inodora) was 80% and the “herbicidal activity in percent, STEME” value (Stellaria media [2]) was 80%. For the same compound, the “herbicidal activity ALOMY” value (Alopecurus myosuroides [3]) was 90%, the “herbicidal activity ECHCG” value (Echinochloa crus-galli) was 100% and the “herbicidal activity LOLMU” value (Lolium multiflorum) was 90%. The “herbicidal activity ABUTH” value (Abutilon theophrasti) was 90%, the “herbicidal activity AMARE” value (Amaranthus retroflexus) was 100% and the “herbicidal activity PHBPU” value (Pharbitis purpurea) was 80%. The “herbicidal activity STEME” value (Stellaria media [4]) was 90% and the “herbicidal activity VIOTR” value (Viola tricolor) was 90%.
With `Cc1cc(C)nc(NC(=O)NS(=O)(=O)c2ncccc2C2=NOCC2)n1` [Ia-3] the “herbicidal activity in percent, ALOMY” value (Alopecurus myosuroides [1]) was 80%, the “herbicidal activity in percent, MATIN” value (Matricaria inodora) was 80% and the “herbicidal activity in percent, STEME” value (Stellaria media [2]) was 80%. The “herbicidal activity ALOMY” value (Alopecurus myosuroides [3]) was 80%, the “herbicidal activity ECHCG” value (Echinochloa crus-galli) was 90% and the “herbicidal activity LOLMU” value (Lolium multiflorum) was 80%. For the same compound, the “herbicidal activity ABUTH” value (Abutilon theophrasti) was 90%, the “herbicidal activity AMARE” value (Amaranthus retroflexus) was 100% and the “herbicidal activity PHBPU” value (Pharbitis purpurea) was 90%. The “herbicidal activity STEME” value (Stellaria media [4]) was 90% and the “herbicidal activity VIOTR” value (Viola tricolor) was 80%.
For `COc1cc(Cl)nc(NC(=O)NS(=O)(=O)c2ncccc2C2=NOC(C)(C)C2)n1` [Ia-14], the “herbicidal activity ECHCG” value (Echinochloa crus-galli) was 80%, the “herbicidal activity AMARE” value (Amaranthus retroflexus) was 90% and the “herbicidal activity STEME” value (Stellaria media [4]) was 80%. The “herbicidal activity VIOTR” value (Viola tricolor) was 90%.
For `Clc1ncccc1C1=NOCC1` [XIa-1, 2-Chloro-3-(4,5-dihydroisoxazol-3-yl)pyridine], the logP (logp) was 0.97 and the melting point was 183 to 185 °C.
For `COc1nc(C)nc(NC(=O)NS(=O)(=O)c2ncccc2C2=NOCC2)n1` [Ia-7], the “herbicidal activity ALOMY” value (Alopecurus myosuroides [3]) was 80%, the “herbicidal activity LOLMU” value (Lolium multiflorum) was 90% and the “herbicidal activity ABUTH” value (Abutilon theophrasti) was 80%.
With `COc1cc(C)nc(NC(=O)NS(=O)(=O)c2ncccc2C2=NOC(C)C2)n1` (stereo not drawn) [Ia-15] the “herbicidal activity in percent, ALOMY” value (Alopecurus myosuroides [1]) was 80%, the “herbicidal activity in percent, MATIN” value (Matricaria inodora) was 80% and the “herbicidal activity ALOMY” value (Alopecurus myosuroides [3]) was 90%. For the same compound, the “herbicidal activity ECHCG” value (Echinochloa crus-galli) was 80%, the “herbicidal activity LOLMU” value (Lolium multiflorum) was 80% and the “herbicidal activity AMARE” value (Amaranthus retroflexus) was 90%. The “herbicidal activity STEME” value (Stellaria media [4]) was 80% and the “herbicidal activity VIOTR” value (Viola tricolor) was 80%.
For `COc1cc(OC)nc(NC(=O)NS(=O)(=O)c2ncccc2C2=NOC(C)(C)C2)n1` [Ia-13], the “herbicidal activity in percent, ALOMY” value (Alopecurus myosuroides [1]) was 90%, the “herbicidal activity in percent, MATIN” value (Matricaria inodora) was 80% and the “herbicidal activity in percent, STEME” value (Stellaria media [2]) was 80%. For the same compound, the “herbicidal activity ALOMY” value (Alopecurus myosuroides [3]) was 90%, the “herbicidal activity ECHCG” value (Echinochloa crus-galli) was 90% and the “herbicidal activity LOLMU” value (Lolium multiflorum) was 90%. The “herbicidal activity ABUTH” value (Abutilon theophrasti) was 90%, the “herbicidal activity AMARE” value (Amaranthus retroflexus) was 90% and the “herbicidal activity PHBPU” value (Pharbitis purpurea) was 90%. For the same compound, the “herbicidal activity STEME” value (Stellaria media [4]) was 100% and the “herbicidal activity VIOTR” value (Viola tricolor) was 90%.
